{
  "source": "paper PMC6460286",
  "about": "(Biochimie, 2017)",
  "key": {"[1]": {"test_system": "HIF PHD (HIF1 ODD-luc reporter)", "details": "specific for HIF PHD; cited from earlier work"}, "[2]": {"test_system": "HIF PHD (HIF1 ODD-luc reporter)", "assay": "HIF1 ODD-luc reporter assay in SH-SY5Y cells", "type": "cell-based", "details": "for effect on HIF1 ODD-luc reporter activation induced by Compound 8a: agents applied in equal concentration; for effect on reporter activation by HIF PHD inhibitors of various nature: NAC up to millimolar concentrations"}, "[3]": {"test_system": "HIF-1 target genes (VEGF, HO-1), HIF1α, NQO-1", "assay": "RT-PCR of HIF1 target genes in N2a cells", "type": "cell-based, mouse", "details": "4 h"}, "[4]": {"assay": "Potassium ferricyanide reduction", "type": "physicochemical", "details": "1 mM agent, 1 mM potassium ferricyanide, 50 mM Tris-HCl buffer, pH 7.4"}, "HIF1 and HIF2": {"test_system": "HIF1 and HIF2", "details": "cited from earlier work"}, "PHD2": {"target": "PHD2", "details": "ref 36 (FG-4592), ref 37 (IOX2); cited from earlier work"}, "HIF PHD": {"test_system": "HIF PHD", "details": "cited from earlier work"}, "HIF": {"test_system": "HIF", "details": "cited from earlier work"}, "[5]": {"details": "3 h incubation, physiological L-Asc (0.04–0.1 mM)"}, "[6]": {"details": "reporter activation by Compound 8a"}},
  "note": "Read-outs that look alike come from different tables or passages of the source.",
  "data": [
    {"compound": "Oc1cccnc1NC(c1ccc(Cl)cc1)c1ccc2cccnc2c1O", "note": "(stereo not drawn) [Compound 8, adaptaquin]", "values": [
      {"measurement": "EC50", "setting": "[1]", "value": "~2", "unit": "µM"}
    ]},
    {"compound": "O=C1O[C@H]([C@H](O)CO)C(O)=C1O", "note": "[D-Asc, D-isoascorbic acid]", "values": [
      {"measurement": "effect on HIF1 ODD-luc reporter activation induced by Compound 8a", "setting": "[2]; 3 h incubation", "value": "neither D-Asc nor NAC applied in the equal concentration cause any change"},
      {"measurement": "effect on reporter activation by HIF PHD inhibitors of various nature", "setting": "[2]", "value": "minor effect, if any"},
      {"measurement": "inhibition of HIF1 target gene activation", "setting": "[3]; 100 μM co-treatment with 5 μM Compound 8a", "value": "under 10%"},
      {"measurement": "reducing power (ferricyanide reduction kinetics), L-Asc vs D-Asc", "setting": "[4]", "value": "no difference in reduction kinetics"}
    ]},
    {"compound": "CCOC(=O)c1ccc(O)c(O)c1", "note": "[DHB, Ethyl 3,4-dihydroxybenzoate]", "values": [
      {"measurement": "suppressing effect of L-Asc on reporter activation induced by the inhibitor", "setting": "[2]; [5]", "value": "very sensitive to L-Asc"},
      {"measurement": "EC50", "setting": "[2]; read-out: EC50 of reporter activation", "value": 250, "unit": "µM"}
    ]},
    {"compound": "COC(=O)CNC(=O)C(=O)OC", "note": "[DMOG, dimethyloxalyl glycine]", "values": [
      {"measurement": "suppressing effect of L-Asc on reporter activation induced by the inhibitor", "setting": "[2]; [5]", "value": "pronounced for DMOG up to 250 μM"},
      {"measurement": "suppressing effect of L-Asc on reporter activation induced by the inhibitor", "setting": "[2]; higher DMOG concentrations (mM range), not shown", "value": "negligible"},
      {"measurement": "working concentration resulting in HIF1 and HIF2 stabilization", "setting": "HIF1 and HIF2; after 2 h incubation", "value": "ca. 1 mM"}
    ]},
    {"compound": "Cc1nc(C(=O)NCC(=O)O)c(O)c2ccc(Oc3ccccc3)cc12", "note": "[FG-4592]", "values": [
      {"measurement": "suppressing effect of L-Asc on reporter activation induced by the inhibitor", "setting": "[2]; [5]", "value": "minimal"},
      {"measurement": "concentration above which toxicity is seen", "setting": "[2]; titration up to 0.6 mM, Supplementary Fig. S2", "value": "above 100 μM"}
    ]},
    {"compound": "O=C(O)CNC(=O)c1c(O)c2ccccc2n(Cc2ccccc2)c1=O", "note": "[IOX2]", "values": [
      {"measurement": "suppressing effect of L-Asc on reporter activation induced by the inhibitor", "setting": "[2]; [5]", "value": "minimal"},
      {"measurement": "inhibition constant, homogeneous enzyme assay with PHD2", "setting": "PHD2", "value": "nanomolar range"}
    ]},
    {"compound": "O=C1O[C@H]([C@@H](O)CO)C(O)=C1O", "note": "[L-Asc, L-ascorbic acid]", "values": [
      {"measurement": "effect on HIF1 ODD-luc reporter activation induced by Compound 8a", "setting": "[2]; 3 h incubation", "value": "potently suppresses"},
      {"measurement": "L-Asc concentration at which suppression is already observed", "setting": "[2]; [6]", "value": 10, "unit": "µM"},
      {"measurement": "concentration above which L-Asc effect shows saturation", "setting": "[2]; [6]", "value": "above 40 μM"},
      {"measurement": "drop in magnitude of reporter activation with increase in L-Asc concentration", "setting": "[2]; [6]", "value": 2.5, "unit": "fold"},
      {"measurement": "increase in EC50 of Compound 8a with increase in L-Asc concentration", "setting": "[2]; [6]", "value": "ca. 1.5 fold"},
      {"measurement": "effect of L-Asc alone on expression of HIF1 target genes", "setting": "[3]; 100 μM", "value": "no changes"},
      {"measurement": "reducing power (ferricyanide reduction kinetics), L-Asc vs D-Asc", "setting": "[4]", "value": "no difference in reduction kinetics"},
      {"measurement": "Km", "setting": "HIF PHD", "value": "~50", "unit": "µM"},
      {"measurement": "L-Asc effect on HIF stabilization induced by 1 mM monomethyloxalylglycine", "setting": "HIF1 and HIF2; immunoblotting", "value": "absence of L-Asc effect"},
      {"measurement": "concentration giving the comparable suppressive effect on HIF stability", "setting": "HIF", "value": 50, "unit": "µM"}
    ]},
    {"compound": "CC(=O)N[C@@H](CS)C(=O)O", "note": "[NAC, N-acetylcysteine]", "values": [
      {"measurement": "effect on HIF1 ODD-luc reporter activation induced by Compound 8a", "setting": "[2]; 3 h incubation", "value": "neither D-Asc nor NAC applied in the equal concentration cause any change"},
      {"measurement": "suppressing effect on reporter activation", "setting": "[2]; NAC up to 1 mM, either drug, not shown", "value": "no suppressing effect"},
      {"measurement": "effect on reporter activation by HIF PHD inhibitors of various nature", "setting": "[2]", "value": "no effect"}
    ]}
  ]
}
